Source: US11129835B2, “Methods and compositions for the inhibition of PIN1” (Beth Israel Deaconess Medical Center, Inc., priority 2012, dated 2021)

Assays:
breast cancer cells = assay: RARa knockdown rescue of cis-RA-mediated cell death; format: cell-based
Description: (§1) The anti-cancer effect of RAs was examined to determine whether it depends on RAR in the breast cancer cells.

MCF10A = assay: cell viability, normal cell line; format: cell-based
Description: (§2) This discrepancy between cell lines was correlated with the RAs' ability to suppress Pin1 expression. Pin1 level was decreased by treatment of RAs in drugs-responsive SKBR3 and T47D, but not in drugs-irresponsive normal cells, MCF10A, in which Pin1 target protein, cyclin D1, served as biomarker of in vivo Pin1 activity.

SKBR3 = assay: cell viability of breast cancer cell lines; format: cell-based
Description: as §2

T47D = assay: cell viability of breast cancer cell lines; format: cell-based
Description: as §2

full length Pin1 = target: T1, full length Pin1 (Homo sapiens, UniProt Q13526); assay: single-step fluorescence polarization-based displacement assay (FP-HTS), 384-well, HF488 probe; format: binding; details: for Pin1 inhibition in the FP assay: cis-RA compared with trans-RA
T1 construct: FP-HTS in a 384-well plate format with full length Pin1
T1 sequence (Q13526 whole entry): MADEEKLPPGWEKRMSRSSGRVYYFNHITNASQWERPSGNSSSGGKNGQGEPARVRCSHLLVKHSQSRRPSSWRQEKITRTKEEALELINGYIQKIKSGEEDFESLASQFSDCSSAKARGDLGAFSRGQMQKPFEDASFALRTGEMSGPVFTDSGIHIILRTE
Method: A high-throughput screen for identifying Pin1 inhibitors was developed using a single-step fluorescence polarization-based displacement assay (FP-HTS).
The FP-HTS with a 5 nM probe and 200 nM Pin1 was used to conduct a pilot screen on a selected set of chemical libraries.
as §1

Pin1 and DAPK1 = Pin1 and DAPK1 (Homo sapiens, UniProt Q13526); assay: association between Pin1 and DAPK1; format: binding
Chain of Pin1 and DAPK1 (Q13526 whole entry): as above

Pin1 = Pin1 (Homo sapiens, UniProt Q13526); assay: PPIase assay; format: biochemical
Chain of Pin1 (Q13526 whole entry): as above
Description: The anti-cancer effect of RAs was examined to determine whether it depends on RAR in the breast cancer cells. […] In the PPIase assay, Pin1 activity was blocked by either cis- or trans-RA in a dose-dependent manner.

[1] = test system: Pin1 K63A, S67E, R68/69A, H59A or S71E; assay: trans-RA binding to Pin1 point mutants
[2] = test system: mouse embryonic fibroblast (WT MEF, Pin1 KO MEF); assay: trans-RA-mediated cell viability in WT and Pin1 knockout MEF; format: cell-based
Description: To further confirm this premise, wild-type mouse embryonic fibroblast (WT MEF) and Pin1 knockout MEF (Pin1 KO MEF) were used to test trans-RA-mediated cell viability.

| Compound | cell death after RARa knockdown (breast cancer cells) | cell viability (MCF10A) | IC50, cell viability (SKBR3) | IC50, cell viability (T47D) | pilot screen hit ranking by Z-score (full length Pin1; 5 nM probe and 200 nM Pin1) | Pin1 inhibition in the FP assay (full length Pin1) | association between Pin1 and DAPK1 (Pin1 and DAPK1) | Pin1 activity in the PPIase assay (Pin1) | binding to Pin1 point mutants [1] | cell viability, Pin1 KO MEF versus WT MEF [2] | cell viability, Pin1 KO MEF re-expressing Pin1 ([2]; stably expressing WT Pin1 or W34 K63A Pin1 mutant) |
| --- | --- | --- | --- | --- | --- | --- | --- | --- | --- | --- | --- |
| CC1=C(/C=C/C(C)=C/C=C/C(C)=C\C(=O)O)C(C)(C)CCC1 [cis-RA, 13-cis-retinoic acid] | only partially rescue | remained unaffected | nano-molar range | nano-molar range | top inhibitory chemical | eventually catch up with trans-RA in the long-term incubation with Pin1 | blocked the association between Pin1 and DAPK1 in a dose-dependent manner | blocked |  |  |  |
| CC1=C(/C=C/C(C)=C/C=C/C(C)=C/C(=O)O)C(C)(C)CCC1 [trans-RA, all-trans retinoic acid] |  | remained unaffected | nano-molar range | nano-molar range |  | even more prominent Pin1 inhibition than cis-RA | blocked the association between Pin1 and DAPK1 in a dose-dependent manner, with trans being more potent | blocked | completely or significantly abolished | Pin1 KO MEF was more resistant to trans-RA than WT MEF | Pin1 KO MEF stably expressing WT Pin1, but not W34 K63A Pin1 mutant, enabled cells to re-sensitize trans-RA |
